# According to US10913732B2, “Furoxans as therapies for neurodegenerative disorders” (The University of Toledo, priority 2016, dated 2021):
# Entries after “also recorded” stand apart in the source; their conditions may differ.
# Assays:
# Male C57BL/6 mice = experiment: Step-through passive avoidance (STPA), scopolamine-induced amnesia; type: in vivo
# Procedure: FIGS. 4A-4B: STPA experimental timeline (FIG. 4A), and results of Male C57BL/6 mice administered either vehicle or 31b via i.p. injection at 60 min or 120 min prior to training in STPA (FIG. 4B). […] Memory retention was measured as latency to enter the dark compartment 24 h after training. Data represented as mean and s.e.m.
# The STPA apparatus consisted of an acrylic box with an illuminated compartment connected to a darkened compartment by a small guillotine door. Mice were placed in the illuminated side and were trained against their natural tendency to translocate to the dark side using an aversive stimulus (shock via electrified floor grading). Memory consolidation is measured as the latency times to enter the dark compartment 24 hr after training.
# All procedures were performed under the approved IACUC protocol #108451. Male C57BL/6 mice (Envigo), N=9 per group, were habituated at the animal facility for at least 14 days. Ear tags were applied and animals weighed. 2 hr prior to the drug adminstration the mice were individually acclimated to the illuminated compartment to assess tendency to enter the dark chamber (measured in seconds). In this phase no shock was be delivered. […] The mice were then administered either vehicle (95 [0.9% NaCl]:5 [DMSO]) or 31b (0.1, 1, 10, or 20 mg/kg) via i.p. injection (50 μL) at 1 h or 2 h prior to training. […] Mice were individually placed into the light compartment and upon translocation to the dark compartment the guiltine door closed and the mice were trained by delivering a mild adversive stimulus (0.5 mA) via the electrified floor grading of the dark chamber. Each mouse was held in the dark chamber for 30 seconds, then returned to their cage for 120 seconds before the second training session. […] Memory retention was measured 24 hours after training by placing the same mouse in the light chamber and measuring latency to enter the dark chamber (no aversive stimulus is delivered during the retention test). Data was analyzed by one way ANOVA analysis with Dunnett's post-hoc test.
# pCREB = pCREB modulation in PC-12 cells (without insult, with OGD, L-NAME); type: cell-based; conditions: 31b 25 μM, 48 hr incubation
# Procedure: (§1) FIGS. 3A-3C: Neuroprotection (FIG. 3A), MTT treatment was used to assess cell viability (FIG. 3B), and pCREB modulation (FIG. 3C) of furoxan compounds. Neuroprotection assay workflow: expose PC12 cells to oxygen glucose deprivation (OGD) for 90 min→reoxygenate and add furoxan (1, 10, or 25 μM)→incubate for 24 hr→MTT readout of viability. Data represented as mean and s.e.m. (n=3). *=p<0.05, **=p<0.01, ***=p<0.001 compared to vehicle control using one way ANOVA analysis with Dunnett's post-hoc test. Red dashed line indicates threshold of vehicle effects. For pCREB modulation, 31b (25 μM) was examined (PC-12 cells, 48 hr incubation) in the following: without insult, with OGD, L-NAME.
# [1] = Rat liver microsome metabolic stability; type: in vitro ADME; conditions: rat liver microsomes, read-out: RLM t1/2
# Procedure: 7.4) at 37° C. (FIG. 5A). Incubations were placed in a temperature controlled HPLC autosampler and aliquots are analyzed by HPLC-UVvis periodically for 2-24 hr. Percent furoxan remaining was determined based on the area under the curve (AUC) of the HPLC UV-absorbance spectrum. Similarly, rat liver microsomes were incubated with 31b in the presence or absence of NADPH to determine microsomal stability (FIG. 5B). Warfarin and verapamil were used as slow and fast metabolizing controls.
# Metabolic stability is an important parameter for determining the drug-like properties of a molecule, especially when trying to develop attenuated furoxans which require reaction with thiols to produce an effect. The metabolism of 31b in the presence of rat liver microsomes (RLM) was studied. Verapamil and warfarin were used as well-characterized controls. […]
# HPLC method: solvents, H2O [0.1% FA]—solvent A; MeOH [0.1% FA]—solvent B; flow rate 1.0 mL/min. […] As described above, thiol reactivity was analyzed via incubations containing the furoxan (250 μM) in the presence or absence of excess (5 mM) cysteine (or N-acetylcysteine [NAc]) in PBS (50 mM, pH 7.4) at 37° C. Incubations were placed in a temperature controlled HPLC autosampler and aliquots were analyzed by HPLC-UVvis periodically for 2-24 hr. Percent furoxan remaining was determined based on the area under the curve (AUC) of the HPLC UV-absorbance spectrum. […]
# PC12 cells = experiment: In vitro neuroprotection against oxygen glucose deprivation (OGD), MTT viability readout; type: cell-based; conditions: OGD 90 min, reoxygenation, furoxan 1, 10 or 25 μM, 24 hr
# Procedure: as §1
# It has been shown that furoxans are protective against oxygen glucose deprivation (OGD), a commonly used cellular model of ischemic stroke. PC12 cells were submitted to OGD for 90 minutes followed by reoxygenation and treatment with varying concentrations of selected embodiments of compounds of Formula I (indicated in FIG. 3A). After 24 hr, MTT treatment was used to assess cell viability (FIG. 3B). […] It has been shown previously that 4-N-oxides release NO at a much slower rate than corresponding 2-N-oxides.
structure (smiles),measurement,setting,value
CC1CCN(Cc2no[n+]([O-])c2-c2ccc(F)cc2)CC1 [31b],Latency to enter the dark compartment,"Male C57BL/6 mice; 20 mg/kg i.p. 2 hr prior to training, scopolamine 1 mg/kg i.p. 30 min prior to training, 24 hr after training",237 s
same,Reversal of scopolamine induced amnesia / memory impairment in STPA,"Male C57BL/6 mice; mice, i.p., scopolamine 1 mg/kg",reverses scopolamine induced memory impairment; also recorded: capable of reversing scopolamine induced amnesia
same,Effects of NOS inhibition on pCREB,pCREB,reverses the effects of NOS inhibition on pCREB
same,half-life,[1],~11 min
same,Neuroprotection against OGD (cell viability by MTT),PC12 cells,concentration dependent protection; also recorded: outperform the corresponding 2-N-oxides
